Calls of active or inactive are those of the source.
Tests used:
[1] = molecular target: Voltage-dependent T-type calcium channel subunit alpha-1H (Homo sapiens, UniProt O95180); assay type: functional;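 further: channel activity triggered by adding a high calcium stimulation buffer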
Cytochrome P450 3A4 [2] = molecular target: T1, Cytochrome P450 3A4 (Homo sapiens, UniProt P08684); conditions: Potency
INS1 = assay: beta cell apoptosis inhibitors, cytokine rescue, dose response, luminescence, retest (AID 449756); assay type: functional, cell-based; conditions: Rattus norvegicus;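 further: cell death triggered by IL-1 beta plus TNF-alpha plus IFN-gamma mixture; protective hits raise ATP signal compared with cytokine alone wells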
[3] = molecular target: T2, Calpain-2 catalytic subunit (Sus scrofa, UniProt P43367); assay: pig calpain II inhibitor potency, dose response, biochemical, fluorogenic peptide substrate (AID 1420); assay type: functional
T2 sequence (P43367 whole entry): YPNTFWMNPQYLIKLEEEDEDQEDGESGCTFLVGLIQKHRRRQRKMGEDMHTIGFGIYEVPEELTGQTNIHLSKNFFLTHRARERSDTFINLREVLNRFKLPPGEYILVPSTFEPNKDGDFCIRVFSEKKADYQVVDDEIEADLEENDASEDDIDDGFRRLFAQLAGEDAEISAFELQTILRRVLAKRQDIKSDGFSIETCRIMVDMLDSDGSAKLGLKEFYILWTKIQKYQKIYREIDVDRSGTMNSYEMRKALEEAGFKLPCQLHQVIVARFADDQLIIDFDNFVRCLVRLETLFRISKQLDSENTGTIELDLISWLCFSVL

[4] = cytotoxicity in HEK-293T cells, dose response, cytotoxicity control for BCR NF-kB inhibitor project, luminescence, B-cell screen hits (AID 489021); assay type: functional, cell-based;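 further: HEK-293T cells carrying an NF-kB luciferase reporter; cells exposed to compound for about 14 hours before viability readout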
Leucine aminopeptidase = molecular target: T3, Leucine aminopeptidase (Plasmodium falciparum 3D7, UniProt Q8IL11); assay: P. falciparum M17LAP inhibitors, primary screen, biochemical, fluorogenic H-Leu-NHMec substrate, 1536-well (AID 1619); assay type: functional
T3 sequence (Q8IL11 whole entry): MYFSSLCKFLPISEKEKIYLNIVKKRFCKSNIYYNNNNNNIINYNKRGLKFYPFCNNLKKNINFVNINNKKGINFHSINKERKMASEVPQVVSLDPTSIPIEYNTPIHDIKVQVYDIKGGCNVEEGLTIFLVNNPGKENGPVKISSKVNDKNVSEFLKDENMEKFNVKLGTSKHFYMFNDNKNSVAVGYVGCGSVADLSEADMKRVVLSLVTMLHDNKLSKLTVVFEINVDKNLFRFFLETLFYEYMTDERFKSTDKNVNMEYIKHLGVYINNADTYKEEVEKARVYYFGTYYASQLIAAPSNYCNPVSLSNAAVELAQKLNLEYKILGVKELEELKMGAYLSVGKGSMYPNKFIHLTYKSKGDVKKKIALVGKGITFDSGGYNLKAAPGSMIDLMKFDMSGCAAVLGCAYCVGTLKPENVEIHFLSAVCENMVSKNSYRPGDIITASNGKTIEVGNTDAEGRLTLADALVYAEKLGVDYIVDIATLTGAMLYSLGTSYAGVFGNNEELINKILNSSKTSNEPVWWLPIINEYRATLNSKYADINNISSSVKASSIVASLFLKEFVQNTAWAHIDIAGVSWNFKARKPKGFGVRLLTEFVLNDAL

Aminopeptidase N = molecular target: T4, Aminopeptidase N (Plasmodium falciparum FcB1/Columbia, UniProt O96935); assay: P. falciparum M1AAP inhibitors, biochemical, fluorogenic H-Leu-NHMec substrate, 1536-well (AID 1445); design: species or system Plasmodium falciparum 3D7, 3D7
T4 sequence (O96935 whole entry): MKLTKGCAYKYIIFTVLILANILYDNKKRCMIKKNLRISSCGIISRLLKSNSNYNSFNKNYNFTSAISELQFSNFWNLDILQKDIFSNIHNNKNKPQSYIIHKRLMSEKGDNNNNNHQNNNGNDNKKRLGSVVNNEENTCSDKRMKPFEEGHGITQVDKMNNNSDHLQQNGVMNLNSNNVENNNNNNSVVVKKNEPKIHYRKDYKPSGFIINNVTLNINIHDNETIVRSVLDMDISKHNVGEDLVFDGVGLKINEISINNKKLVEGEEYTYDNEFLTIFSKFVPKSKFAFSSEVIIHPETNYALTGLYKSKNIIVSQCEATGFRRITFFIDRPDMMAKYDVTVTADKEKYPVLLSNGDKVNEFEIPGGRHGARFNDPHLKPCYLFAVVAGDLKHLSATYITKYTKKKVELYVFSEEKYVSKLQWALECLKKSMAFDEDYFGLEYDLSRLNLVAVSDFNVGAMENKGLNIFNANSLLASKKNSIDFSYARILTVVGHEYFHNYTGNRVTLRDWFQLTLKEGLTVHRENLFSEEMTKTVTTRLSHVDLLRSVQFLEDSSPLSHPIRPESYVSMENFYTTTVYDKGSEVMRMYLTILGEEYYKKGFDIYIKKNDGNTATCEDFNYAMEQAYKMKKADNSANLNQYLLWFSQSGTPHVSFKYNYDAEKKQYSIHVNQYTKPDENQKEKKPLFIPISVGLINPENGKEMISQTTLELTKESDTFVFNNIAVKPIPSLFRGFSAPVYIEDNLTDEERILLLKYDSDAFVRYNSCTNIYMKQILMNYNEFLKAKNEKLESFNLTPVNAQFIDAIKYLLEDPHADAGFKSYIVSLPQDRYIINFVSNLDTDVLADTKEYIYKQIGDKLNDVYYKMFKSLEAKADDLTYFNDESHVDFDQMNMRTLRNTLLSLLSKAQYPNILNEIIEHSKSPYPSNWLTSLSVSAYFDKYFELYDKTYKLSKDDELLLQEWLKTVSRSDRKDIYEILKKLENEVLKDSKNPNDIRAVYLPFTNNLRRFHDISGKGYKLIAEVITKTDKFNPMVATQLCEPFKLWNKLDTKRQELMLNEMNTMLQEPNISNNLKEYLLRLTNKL

cells [5] = assay type: functional, cell-based
cells [6] = assay type: functional, cell-based; remark: listed apart in the source
Cytochrome P450 3A4 [7] = molecular target: T1, Cytochrome P450 3A4

T1 sequence (P08684 whole entry): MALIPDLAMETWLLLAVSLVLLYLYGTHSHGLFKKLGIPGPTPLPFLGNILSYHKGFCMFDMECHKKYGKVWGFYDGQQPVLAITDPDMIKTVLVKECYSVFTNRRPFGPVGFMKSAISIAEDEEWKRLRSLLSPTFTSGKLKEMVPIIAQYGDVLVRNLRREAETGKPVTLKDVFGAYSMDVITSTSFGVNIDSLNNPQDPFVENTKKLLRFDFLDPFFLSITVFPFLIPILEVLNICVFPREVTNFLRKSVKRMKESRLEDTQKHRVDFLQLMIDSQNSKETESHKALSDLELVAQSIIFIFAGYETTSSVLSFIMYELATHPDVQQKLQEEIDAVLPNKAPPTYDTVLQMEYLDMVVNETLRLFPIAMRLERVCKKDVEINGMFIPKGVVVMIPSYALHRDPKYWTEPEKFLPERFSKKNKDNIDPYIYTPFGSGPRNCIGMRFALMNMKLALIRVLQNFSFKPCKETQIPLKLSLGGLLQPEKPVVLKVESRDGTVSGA
Sequence of Voltage-dependent T-type calcium channel subunit alpha-1H (O95180 whole entry): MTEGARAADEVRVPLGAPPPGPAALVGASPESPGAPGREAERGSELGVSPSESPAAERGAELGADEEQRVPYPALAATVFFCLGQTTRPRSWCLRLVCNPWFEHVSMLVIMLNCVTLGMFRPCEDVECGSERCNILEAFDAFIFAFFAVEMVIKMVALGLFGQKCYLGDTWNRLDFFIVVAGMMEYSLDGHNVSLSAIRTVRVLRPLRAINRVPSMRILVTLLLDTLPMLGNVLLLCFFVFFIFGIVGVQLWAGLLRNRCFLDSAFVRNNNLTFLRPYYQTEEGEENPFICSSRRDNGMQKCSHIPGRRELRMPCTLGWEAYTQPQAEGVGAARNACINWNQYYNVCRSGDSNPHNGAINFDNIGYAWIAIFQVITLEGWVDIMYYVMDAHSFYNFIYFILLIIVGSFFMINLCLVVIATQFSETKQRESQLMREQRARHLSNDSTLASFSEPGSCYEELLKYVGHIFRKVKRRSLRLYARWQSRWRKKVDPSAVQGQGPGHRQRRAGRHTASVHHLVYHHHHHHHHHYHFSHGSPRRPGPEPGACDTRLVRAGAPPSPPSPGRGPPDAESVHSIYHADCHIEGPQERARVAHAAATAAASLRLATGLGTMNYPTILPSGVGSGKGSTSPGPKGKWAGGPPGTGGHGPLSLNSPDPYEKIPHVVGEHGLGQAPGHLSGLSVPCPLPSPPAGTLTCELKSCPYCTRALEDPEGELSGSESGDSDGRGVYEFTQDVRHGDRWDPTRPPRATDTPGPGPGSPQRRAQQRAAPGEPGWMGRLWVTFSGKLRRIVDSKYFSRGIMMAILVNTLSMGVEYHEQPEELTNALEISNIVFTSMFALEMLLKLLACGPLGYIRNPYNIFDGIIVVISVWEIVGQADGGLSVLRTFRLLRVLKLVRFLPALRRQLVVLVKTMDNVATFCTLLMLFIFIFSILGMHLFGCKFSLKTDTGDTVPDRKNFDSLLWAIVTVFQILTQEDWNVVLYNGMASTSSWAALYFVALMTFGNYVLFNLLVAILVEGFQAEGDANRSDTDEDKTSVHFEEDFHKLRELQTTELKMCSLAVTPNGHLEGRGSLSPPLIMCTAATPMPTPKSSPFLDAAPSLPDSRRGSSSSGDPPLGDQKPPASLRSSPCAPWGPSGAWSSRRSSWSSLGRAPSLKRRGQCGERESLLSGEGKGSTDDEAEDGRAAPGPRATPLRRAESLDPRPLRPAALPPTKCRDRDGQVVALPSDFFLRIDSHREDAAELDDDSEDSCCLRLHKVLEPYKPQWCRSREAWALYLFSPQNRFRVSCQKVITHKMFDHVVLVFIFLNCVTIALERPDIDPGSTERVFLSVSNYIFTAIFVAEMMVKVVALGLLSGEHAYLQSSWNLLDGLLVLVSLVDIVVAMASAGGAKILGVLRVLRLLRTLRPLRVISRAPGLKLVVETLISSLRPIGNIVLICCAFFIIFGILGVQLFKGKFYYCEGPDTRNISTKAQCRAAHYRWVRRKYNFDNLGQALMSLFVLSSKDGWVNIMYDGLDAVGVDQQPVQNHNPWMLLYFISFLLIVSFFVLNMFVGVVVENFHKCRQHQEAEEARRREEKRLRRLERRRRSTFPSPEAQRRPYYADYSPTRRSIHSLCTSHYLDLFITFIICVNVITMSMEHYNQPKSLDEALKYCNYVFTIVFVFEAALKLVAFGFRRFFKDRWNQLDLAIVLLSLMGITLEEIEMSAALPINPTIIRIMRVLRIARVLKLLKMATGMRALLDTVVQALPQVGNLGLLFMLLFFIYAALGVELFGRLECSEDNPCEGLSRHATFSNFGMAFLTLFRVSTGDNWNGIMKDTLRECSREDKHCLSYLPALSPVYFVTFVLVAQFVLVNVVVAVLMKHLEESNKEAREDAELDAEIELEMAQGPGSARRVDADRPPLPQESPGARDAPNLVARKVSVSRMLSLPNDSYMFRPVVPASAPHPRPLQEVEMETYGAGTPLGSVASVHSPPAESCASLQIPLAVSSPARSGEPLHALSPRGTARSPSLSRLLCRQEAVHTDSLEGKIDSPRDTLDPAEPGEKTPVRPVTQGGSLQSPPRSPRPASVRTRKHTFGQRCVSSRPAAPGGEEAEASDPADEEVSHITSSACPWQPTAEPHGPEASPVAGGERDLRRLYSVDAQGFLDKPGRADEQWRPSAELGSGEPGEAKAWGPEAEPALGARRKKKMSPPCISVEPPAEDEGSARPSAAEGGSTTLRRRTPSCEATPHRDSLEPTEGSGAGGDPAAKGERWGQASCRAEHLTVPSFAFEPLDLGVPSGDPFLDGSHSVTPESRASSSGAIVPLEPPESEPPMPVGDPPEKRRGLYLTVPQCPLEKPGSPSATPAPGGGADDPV

For Cn1cccc1Cc1nnc(SCC(=O)Nc2ccccc2)n1-c1ccc(F)cc1, the EC50 [1] was 2.44 µM (active).

In the case of C=CC(C1=CC(=O)C(OC)=C(OC)C1=O)c1ccccc1 (stereo not given), the AC50 (Cytochrome P450 3A4 [2]) is reported as 15.8 µM (inconclusive).

With Cc1ccc(N(C(=O)Cc2c[nH]c3ccccc23)C(C(=O)NC2CCCCC2)c2ccco2)cc1 (stereo not given) the EC50 [1] was 10.2 µM (active).

With C/C=C/C1Oc2ccc(OC)cc2N2C(=O)C(C)C(OCOC)C12 (stereo not given) the AC50 (Cytochrome P450 3A4 [2]) was 3.98 µM (inconclusive).

For CCC1=C(OC(=O)N(CC)CC)N2C(=O)O/C(=N\CCOC)[C@]2(C)[C@H]2C1=CC[C@H]1C(=O)NC(=O)[C@H]12, the AC50 (Cytochrome P450 3A4 [2]) was 10 µM (inconclusive).

In the case of Cc1ccc(NC(=O)c2c(-c3c(F)cccc3Cl)noc2C)cc1F, the AC50 (INS1) is reported as > 260 µM (inactive) and the EC50 [1] is reported as 5.69 µM (active).

In the case of CCCn1c(C)nc2c(N(CCN(C)C)Cc3ccccc3)nc(C)nc21, the AC50 (Cytochrome P450 3A4 [2]) is reported as 12.6 µM (inconclusive).

With CCCC(=O)Nc1ccc(Sc2ccc([N+](=O)[O-])cc2)cc1 the IC50 [3] was 10.7 µM (not active) and the IC50 [4] was 77.8 µM (inactive).

In the case of CCN1C(=O)c2cccc3c(S(=O)(=O)Nc4ccccc4)ccc1c23, the IC50 [4] is reported as > 80 µM (inactive).

For Cc1[nH]c2ccccc2c1SCC(=O)N1CCCc2ccccc21, the EC50 [1] was 6.34 µM (active).

For O=C(O)C/C(=C\c1ccc(Cl)cc1)c1nc2ccccc2o1, the IC50 (Leucine aminopeptidase) was 105 µM (active) and the IC50 (Aminopeptidase N) was 33.9 µM (active).

With CCC(=O)N1c2ccccc2C(N(C(C)=O)c2ccccc2)CC1C (stereo not given) the EC50 (cells [5]) was > 350 µM (not active), the EC50 (cells [6]) was > 350 µM (not active) and the IC50 [4] was > 80 µM (inactive).

With O=c1oc2ccccc2n1CSc1nc2ccccc2s1 the EC50 [1] was 550 µM (active).

With CC(C)C(c1nnnn1Cc1ccccc1)N(Cc1ccco1)Cc1cccs1 (stereo not given) the IC50 [4] was > 80 µM (inactive).

For CCOC(=O)C1=C(Nc2ccc(OC)cc2)S/C(=C\c2ccc(OCC(=O)O)c(OCC)c2)C1=O, the IC50 (Leucine aminopeptidase) was 21.3 µM (active) and the IC50 (Aminopeptidase N) was 36.3 µM (active).

For CC(=O)c1cccc(S(=O)(=O)Nc2cc(C(F)(F)F)ccc2N2CCOCC2)c1, the IC50 [4] was > 80 µM (inactive).

With C=CCNC(=O)c1cc([N+](=O)[O-])cc2c(=O)[nH]c(Nc3ccc(Cl)c(Cl)c3)nc12 the AC50 (Cytochrome P450 3A4 [2]) was 10 µM (inconclusive).

With Clc1ccc2c(c1)C(N1CCNCC1)=Nc1ccccc1O2 [AMOXAPINE] the AC50 (Cytochrome P450 3A4 [2]) was 10 µM (inconclusive) and the AC50 (Cytochrome P450 3A4 [7]) was 15.8 µM (inconclusive).
